Experimental data: patent publication US20030148925A1, “Insulin formulation for inhalation” (priority 2000, published 2003)

settings: dog, in vivo

| Substance | AUC Normalised (Relative %) | AUC Normalised (relative to the subcutaneous dose of 1.5 units) [uU.min/ml] | AUC Per Dose [uU.min/ml] | rank of AUC following normalisation to the doses administered |
| --- | --- | --- | --- | --- |
| Humulin S [Formulation E] | (100) % | 2916 | 2916 |  |
| 20% Zinc Insulin in Trehalose [Formulation D] | (17.0) % | 495 | 2355 | highest AUC |
| Zinc Insulin [Formulation A] | (4.2) % | 123 | 657 |  |

The remaining lines, values ahead:

| AUC Normalised (Relative %) | AUC Normalised (relative to the subcutaneous dose of 1.5 units) [uU.min/ml] | AUC Per Dose [uU.min/ml] | rank of AUC following normalisation to the doses administered | Substance |
| --- | --- | --- | --- | --- |
| (8.0) % | 234 | 773 |  | Insulin Without Zinc [Formulation B] |
| (6.4) % | 188 | 625 |  | 95% Zinc Insulin in Trehalose [Formulation C] |
